In patent US12630600B2 (MEDIMMUNE LIMITED, priority 2022, dated 2026):
Starred links: 1 amine or outer side, 2 acyl side, 3 side chain; linkers in the order of their positions; H or OH if unused. Non-standard residues stand in square brackets, D forms with d. Residues, ends and D or L forms follow the SMILES beside them. Groups on a side chain read outwards from the residue. *: point of attachment. C20 diacid = O=C(O)CCCCCCCCCCCCCCCCCCC(=O)*; C18 diacid = O=C(O)CCCCCCCCCCCCCCCCC(=O)*; Dip = N[C@H](C(=O)O)C(c1ccccc1)c1ccccc1; γGlu = O=C(O)[C@H](CCC(=O)[*:2])N[*:1]; Stearoyl = CCCCCCCCCCCCCCCCCC(=O)*; Palmitoyl = CCCCCCCCCCCCCCCC(=O)*; αMeF = C[C@](N)(Cc1ccccc1)C(=O)O; PEG4 = NCCOCCOCCOCCOCCC(=O)O; PEG2 = NCCOCCOCCC(=O)O; AEEA = NCCOCCOCC(=O)O; Aib = CC(C)(N)C(=O)O

Experiments:
wildtype (WT) mice = assay: Glucose change in wildtype mice; assay type: in vivo, mouse; details: s.c.
Experimental: […] and wildtype (WT) mice at 8-14 weeks of age were singly housed on standard chow diet (Envigo, 2918) and automatic water. They acclimated for a minimum of ˜1-2 weeks, and mice were sorted into groups (n=4-8/group) based on body weight. On day of study, mice were fasted briefly for 2 hrs prior to study start. In some studies, mice were pre-treated with octreotide (BaChem, 10 mg/kg) at 30 minutes prior to peptide injection. Glucose was measured via glucometer at various timepoints including −30 min (prior to octreotide when used in studies), 0 min (before peptide dose), 30, 60, 120, 180, 240, and 360 minutes. Since these studies are acute in nature, mice were re-used for multiple studies (no more than 3) and always allowed at least a minimum wash-out period of 1 week.

[1] = molecular target: T1, human glucagon receptor (hGCGR) (Homo sapiens, UniProt P47871); assay: cAMP production (HTRF) in CHO cells expressing human glucagon receptor; assay type: cell-based; details: Table 7, modification at position 20, CHO cells expressing hGCGR, geometric mean, read-out: hGluc-R EC50
T1 construct: expressed in transfected cells; host or cells: CHO
T1 sequence (P47871 26-477): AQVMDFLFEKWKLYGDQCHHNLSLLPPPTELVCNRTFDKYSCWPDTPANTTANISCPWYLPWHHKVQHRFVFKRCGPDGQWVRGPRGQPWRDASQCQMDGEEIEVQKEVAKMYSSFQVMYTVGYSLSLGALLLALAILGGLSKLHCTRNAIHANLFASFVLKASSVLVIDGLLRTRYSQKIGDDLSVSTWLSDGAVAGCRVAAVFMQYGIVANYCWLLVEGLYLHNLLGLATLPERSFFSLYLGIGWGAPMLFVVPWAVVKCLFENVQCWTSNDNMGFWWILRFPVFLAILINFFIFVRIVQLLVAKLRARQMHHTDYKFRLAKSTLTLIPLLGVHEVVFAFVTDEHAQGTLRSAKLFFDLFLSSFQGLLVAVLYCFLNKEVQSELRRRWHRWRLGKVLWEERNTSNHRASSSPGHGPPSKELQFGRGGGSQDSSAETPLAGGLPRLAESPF

[2] = molecular target: T2, human GLP-1 receptor (hGLP-1R) (Homo sapiens, UniProt P43220); assay: cAMP production (HTRF) in CHO cells expressing human GLP-1 receptor; assay type: cell-based
T2 construct: expressed in transfected cells; host or cells: CHO
T2 sequence (P43220 24-463): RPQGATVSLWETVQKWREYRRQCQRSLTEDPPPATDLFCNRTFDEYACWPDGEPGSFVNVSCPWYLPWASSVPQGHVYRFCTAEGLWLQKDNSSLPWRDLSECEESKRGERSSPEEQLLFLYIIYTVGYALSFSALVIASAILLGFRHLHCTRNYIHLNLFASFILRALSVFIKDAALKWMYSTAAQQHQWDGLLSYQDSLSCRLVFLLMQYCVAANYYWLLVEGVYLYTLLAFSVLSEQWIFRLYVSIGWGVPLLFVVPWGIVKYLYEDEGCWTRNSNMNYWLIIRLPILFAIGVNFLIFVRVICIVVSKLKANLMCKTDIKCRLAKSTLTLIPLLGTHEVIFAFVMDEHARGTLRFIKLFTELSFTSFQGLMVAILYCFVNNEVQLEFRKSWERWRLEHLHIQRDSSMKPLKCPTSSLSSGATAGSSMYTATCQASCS

neprilysin = molecular target: T3, neprilysin (Homo sapiens, UniProt P08473); assay: Proteolytic resistance to neprilysin; assay type: in vitro ADME; details: pH 8.3
T3 construct: purchased R&D Systems 1182-ZNC-010
T3 sequence (P08473 whole entry): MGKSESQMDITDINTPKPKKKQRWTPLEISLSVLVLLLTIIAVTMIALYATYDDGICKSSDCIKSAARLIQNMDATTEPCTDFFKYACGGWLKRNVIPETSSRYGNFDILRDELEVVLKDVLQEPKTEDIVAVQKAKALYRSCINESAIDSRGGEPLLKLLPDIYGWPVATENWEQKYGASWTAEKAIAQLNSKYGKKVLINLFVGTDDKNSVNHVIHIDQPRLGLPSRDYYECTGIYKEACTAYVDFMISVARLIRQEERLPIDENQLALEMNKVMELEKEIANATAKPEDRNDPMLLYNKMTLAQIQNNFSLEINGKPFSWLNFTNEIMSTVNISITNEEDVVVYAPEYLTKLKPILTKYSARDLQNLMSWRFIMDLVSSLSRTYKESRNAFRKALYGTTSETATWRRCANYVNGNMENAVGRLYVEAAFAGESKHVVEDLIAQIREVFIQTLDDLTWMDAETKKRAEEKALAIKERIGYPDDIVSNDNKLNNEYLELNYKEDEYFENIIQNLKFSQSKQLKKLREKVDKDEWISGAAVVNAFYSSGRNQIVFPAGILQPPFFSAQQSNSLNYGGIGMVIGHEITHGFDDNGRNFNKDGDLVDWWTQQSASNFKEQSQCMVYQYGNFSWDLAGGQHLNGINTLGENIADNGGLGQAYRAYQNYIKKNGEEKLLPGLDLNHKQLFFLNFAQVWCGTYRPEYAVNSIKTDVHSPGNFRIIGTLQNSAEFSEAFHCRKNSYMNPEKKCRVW
Experimental: 10.0 μg (˜10 units) recombinant Neprilysin (R&D Systems: 1182-ZNC-010) was reconstituted to 100 μL (100 μg/mL, ˜100 units/mL) in assay buffer (50 mM Tris, 50 mM NaCl, 50 mM NaHCO3, adjusted to pH 8.3) to give the enzyme stock solution. Peptide stock solutions were prepared to a concentration of ˜250 μM (˜1.0 mg/mL of 4 kDa peptide) in assay buffer. 100 μL (10 μg, ˜10 units) of neprilysin stock solution was added to 100 μL of peptide stock solution (1.0 mg/mL, ˜100 μg of peptide) and the mixture was co-incubated in a temperature regulated incubator at 37° C. for the duration of the experiment. 25 μL aliquots (˜12.5 μg initial peptide) of the peptide-enzyme mixture were periodically withdrawn (t=0, 30 mins, 1 h, 2 h, 4 h and 24 h) and quenched immediately by addition to an equal volume ([…]) of 10% TFA (v/v) in 1:1 water/acetonitrile to arrest proteolytic activity. The quenched aliquot centrifuged at 7800 rpm, and 30 μL of the supernatant was analyzed by analytical RP-HPLC as follows: Analytical RP-HPLC method: Agilent Polaris C8-A column (4.6×100 mm, 3 micron) eluted with a linear binary gradient of 10-90% MeCN (0.1% TFA v/v) in water (0.1% TFA v/v) over either 10 or 15 mins at 1.5 mL min^−1 at 40° C. with detection by UV absorption at 210 nm. Manual integration (AUC) allowed estimation of remaining intact peptide over the time course of the experiment.

[3] = 10 nmol/kg, somatostatin pretreatment 30 min prior to cpd

Q: Which “WT % glucose change 120 min” value (wildtype (WT) mice; [3]) does the source give for `CC[C@H](C)[C@H](NC(=O)C(C)(C)NC(=O)[C@H](CCC(N)=O)NC(=O)[C@@H](NC(=O)[C@](C)(Cc1ccccc1)NC(=O)[C@H](CC(=O)O)NC(=O)[C@H](CCCCNC(=O)COCCOCCNC(=O)COCCOCCNC(=O)CC[C@H](NC(=O)CCCCCCCCCCCCCCCCC(=O)O)C(=O)O)NC(=O)[C@H](C)NC(=O)[C@H](C)NC(=O)[C@H](CCCNC(=N)N)NC(=O)[C@H](CO)NC(=O)[C@H](CC(=O)O)NC(=O)[C@H](CC(C)C)NC(=O)[C@](C)(Cc1ccccc1)NC(=O)[C@H](CCCCN)NC(=O)[C@H](CO)NC(=O)[C@@H](NC(=O)[C@H](CC(=O)O)NC(=O)[C@H](CO)NC(=O)[C@@H](NC(=O)[C@](C)(Cc1ccccc1)NC(=O)[C@H](CO)NC(=O)CNC(=O)[C@H](Cc1c[nH]cn1)NC(=O)C(C)(C)NC(=O)[C@@H](N)Cc1c[nH]cn1)[C@@H](C)O)C(C)C)C(C)C)C(=O)N[C@@H](C)C(=O)N[C@@H](CC(N)=O)C(=O)N[C@H](C(N)=O)[C@@H](C)O` [Peptide 224, H-Aib-H-G-S-αMePhe-T-S-D-V-S-K-αMePhe-L-D-S-R-A-A-K(ε-(O2Oc)-(O2Oc)-γE-C18diacid)20-D-αMePhe-V-Q-Aib-I-A-N-T-amide] (H-H[Aib]HGS[αMeF]TSDVSK[αMeF]LDSRAAK([AEEA-AEEA-γGlu-C18 diacid])D[αMeF]VQ[Aib]IANT-NH2) here?
A: −40.0%

Q: `CC[C@H](C)[C@H](NC(=O)[C@H](Cc1c[nH]c2ccccc12)NC(=O)[C@H](CCC(N)=O)NC(=O)[C@@H](NC(=O)[C@H](Cc1ccccc1)NC(=O)[C@H](CC(=O)O)NC(=O)[C@H](CCCCNC(=O)COCCOCCNC(=O)COCCOCCNC(=O)CC[C@H](NC(=O)CC[C@H](NC(=O)CCCCCCCCCCCCCCCCCCC(=O)O)C(=O)O)C(=O)O)NC(=O)[C@H](C)NC(=O)[C@H](C)NC(=O)[C@H](CCCNC(=N)N)NC(=O)[C@H](CO)NC(=O)[C@H](CC(=O)O)NC(=O)[C@H](CC(C)C)NC(=O)[C@](C)(Cc1ccccc1)NC(=O)[C@H](CCCCN)NC(=O)[C@H](CO)NC(=O)[C@@H](NC(=O)[C@H](CC(=O)O)NC(=O)[C@H](CO)NC(=O)[C@@H](NC(=O)[C@H](Cc1ccccc1)NC(=O)[C@H](CO)NC(=O)CNC(=O)[C@H](Cc1c[nH]cn1)NC(=O)C(C)(C)NC(=O)[C@@H](N)Cc1c[nH]cn1)[C@@H](C)O)C(C)C)C(C)C)C(=O)N[C@@H](C)C(=O)N[C@@H](CC(N)=O)C(=O)N[C@H](C(N)=O)[C@@H](C)O` [Peptide 290] (H-H[Aib]HGSFTSDVSK[αMeF]LDSRAAK([AEEA-AEEA-γGlu-γGlu-C20 diacid])DFVQWIANT-NH2; N-terminus assumed) was tested. Which EC50 [1] did it give?
A: 0.26 nM

Q: What about the EC50 ([2]; Table 7, modification at position 20, CHO cells expressing hGLP-1R, cAMP, geometric mean, read-out: hGLP-1R EC50) of the same compound?
A: 0.347 nM

Q: What about the “% Relative Potency Ratio” value ([2]; Table 7, % GLP-1R activity relative to GLP-1 / % GlucR activity relative to glucagon) of the same compound?
A: 1.5

Q: What about the remaining at 4 h, 125 µM (neprilysin; isolated enzyme neprilysin) of the same compound?
A: 89%

Q: And the remaining at 24 h, 125 µM (neprilysin; isolated enzyme neprilysin)?
A: 82%

Q: And the “% intact peptide over time, Neprilysin” value (neprilysin)?
A: 100%

Q: How did the “WT % glucose change 120 min” value (wildtype (WT) mice; [3]) turn out when `CCCCCCCCCCCCCCCCCC(=O)N[C@@H](CCC(=O)N[C@@H](CCC(=O)NCCOCCOCCC(=O)NCCOCCOCCC(=O)NCCCC[C@H](NC(=O)[C@H](CO)NC(=O)[C@H](CC(=O)O)NC(=O)[C@H](CC(C)C)NC(=O)[C@@H](NC(=O)[C@H](CCCCN)NC(=O)[C@H](CO)NC(=O)[C@@H](NC(=O)[C@H](CC(=O)O)NC(=O)[C@H](CO)NC(=O)[C@@H](NC(=O)[C@](C)(Cc1ccccc1)NC(=O)[C@H](CO)NC(=O)CNC(=O)[C@H](CCC(N)=O)NC(=O)[C@H](CO)NC(=O)[C@@H](N)Cc1c[nH]cn1)[C@@H](C)O)C(C)C)C(c1ccccc1)c1ccccc1)C(=O)N[C@@H](C)C(=O)N[C@@H](C)C(=O)N[C@@H](CCC(N)=O)C(=O)N[C@@H](CC(=O)O)C(=O)N[C@@](C)(Cc1ccccc1)C(=O)N[C@H](C(=O)N[C@@H](CCC(=O)O)C(=O)NC(C)(C)C(=O)N[C@H](C(=O)N[C@@H](C)C(=O)N[C@@H](CC(N)=O)C(=O)N[C@H](C(N)=O)[C@@H](C)O)[C@@H](C)CC)C(C)C)C(=O)O)C(=O)O` [Peptide 49] (H-HSQGS[αMeF]TSDVSK[Dip]LDSK([PEG2-PEG2-γGlu-γGlu-Stearoyl])AAQD[αMeF]VE[Aib]IANT-NH2; N-terminus assumed) was run?
A: −1.2%

Q: Which “WT % glucose change 120 min” value (wildtype (WT) mice; 3 nmol/kg, no somatostatin pretreatment) does the source give for `CCCCCCCCCCCCCCCC(=O)N[C@@H](CCC(=O)N[C@@H](CCC(=O)NCCOCCOCCOCCOCCC(=O)NCCCC[C@H](NC(=O)[C@H](CO)NC(=O)[C@H](CC(=O)O)NC(=O)[C@H](CC(C)C)NC(=O)[C@@H](NC(=O)[C@H](CCCCN)NC(=O)[C@H](CO)NC(=O)[C@@H](NC(=O)[C@H](CC(=O)O)NC(=O)[C@H](CO)NC(=O)[C@@H](NC(=O)[C@](C)(Cc1ccccc1)NC(=O)[C@H](CO)NC(=O)CNC(=O)[C@H](CCC(N)=O)NC(=O)C(C)(C)NC(=O)[C@@H](N)Cc1c[nH]cn1)[C@@H](C)O)C(C)C)C(c1ccccc1)c1ccccc1)C(=O)N[C@@H](CCCNC(=N)N)C(=O)N[C@@H](C)C(=O)N[C@@H](CCC(N)=O)C(=O)N[C@@H](CC(=O)O)C(=O)N[C@@](C)(Cc1ccccc1)C(=O)N[C@H](C(=O)N[C@@H](CCC(=O)O)C(=O)NC(C)(C)C(=O)N[C@@H](CC(C)C)C(=O)N[C@@H](CCC(=O)O)C(=O)N[C@@H](C)C(=O)NCC(=O)NCC(N)=O)C(C)C)C(=O)O)C(=O)O` [Peptide 43] (H-H[Aib]QGS[αMeF]TSDVSK[Dip]LDSK([PEG4-γGlu-γGlu-Palmitoyl])RAQD[αMeF]VE[Aib]LEAGG-NH2; N-terminus assumed) here?
A: −56.0%

Q: `CC[C@H](C)[C@H](NC(=O)C(C)(C)NC(=O)[C@H](CCC(N)=O)NC(=O)[C@@H](NC(=O)[C@H](Cc1ccccc1)NC(=O)[C@H](CC(=O)O)NC(=O)[C@H](CCCCNC(=O)COCCOCCNC(=O)COCCOCCNC(=O)CC[C@H](NC(=O)CCCCCCCCCCCCCCCCC(=O)O)C(=O)O)NC(=O)[C@H](C)NC(=O)[C@H](C)NC(=O)[C@H](CCCNC(=N)N)NC(=O)[C@H](CO)NC(=O)[C@H](CC(=O)O)NC(=O)[C@H](CC(C)C)NC(=O)[C@](C)(Cc1ccccc1)NC(=O)[C@H](CCCCN)NC(=O)[C@H](CO)NC(=O)[C@@H](NC(=O)[C@H](CC(=O)O)NC(=O)[C@H](CO)NC(=O)[C@@H](NC(=O)[C@](C)(Cc1ccccc1)NC(=O)[C@H](CO)NC(=O)CNC(=O)[C@H](Cc1c[nH]cn1)NC(=O)C(C)(C)NC(=O)[C@@H](N)Cc1c[nH]cn1)[C@@H](C)O)C(C)C)C(C)C)C(=O)N[C@@H](C)C(=O)N[C@@H](CC(N)=O)C(=O)N[C@H](C(N)=O)[C@@H](C)O` [Peptide 287] (H-H[Aib]HGS[αMeF]TSDVSK[αMeF]LDSRAAK([AEEA-AEEA-γGlu-C18 diacid])DFVQ[Aib]IANT-NH2) was tested. Which “% intact peptide over time, Neprilysin” value (neprilysin) did it give?
A: 100%

Q: For `CC[C@H](C)[C@H](NC(=O)C(C)(C)NC(=O)[C@H](CCC(=O)O)NC(=O)[C@@H](NC(=O)[C@](C)(Cc1ccccc1)NC(=O)[C@H](CC(=O)O)NC(=O)[C@H](CCCNC(=N)N)NC(=O)[C@H](C)NC(=O)[C@H](C)NC(=O)[C@H](CCCCNC(=O)COCCOCCNC(=O)COCCOCCNC(=O)CC[C@H](NC(=O)CCCCCCCCCCCCCCCCC(=O)O)C(=O)O)NC(=O)[C@H](CO)NC(=O)[C@H](CC(=O)O)NC(=O)[C@H](CC(C)C)NC(=O)[C@](C)(Cc1ccccc1)NC(=O)[C@H](CCCCN)NC(=O)[C@H](CO)NC(=O)[C@@H](NC(=O)[C@H](CC(=O)O)NC(=O)[C@H](CO)NC(=O)[C@@H](NC(=O)[C@](C)(Cc1ccccc1)NC(=O)[C@H](CO)NC(=O)CNC(=O)[C@H](Cc1c[nH]cn1)NC(=O)C(C)(C)NC(=O)[C@@H](N)Cc1c[nH]cn1)[C@@H](C)O)C(C)C)C(C)C)C(=O)N[C@@H](C)C(=O)N[C@@H](CC(N)=O)C(=O)N[C@H](C(N)=O)[C@@H](C)O` [Peptide 15] (H-H[Aib]HGS[αMeF]TSDVSK[αMeF]LDSK([AEEA-AEEA-γGlu-C18 diacid])AARD[αMeF]VE[Aib]IANT-NH2; N-terminus assumed), which “% intact peptide over time, Neprilysin” value (neprilysin) is on record?
A: 100%
